Source: US20240294478A1, “ANTI-CANCER COMPOUNDS AND METHODS OF USE” (YALE UNIVERSITY, priority 2021, published 2024)
Where two headings read alike, the source gives them in different places.

Experiments:
Assay type in all cases: cell-based, human
[1] = tested on: LN229 MGMT−/MMR+ cells; experiment: Short-term cell viability assay, LN229 MGMT-/MMR+; conditions: for IC50: Homo sapiens, read-out: IC50 against LN229 cell lines, MGMT− MMR+; for MGMT− TI: Table III
Protocol: (§1) LN229 MGMT- and MGMT+ cell lines were a gift from B. Kaina (Johannes Gutenberg University Mainz, Mainz, Germany) and grown in Gibco® Duilbecco's Modified Eagle Medium with 10% fetal bovine serum (DMEM). For each compound tested, the relationship between MGMT status and MMR status and compound activity, in terms of IC50 values ([…]), was determined by the following method. On day 1, LN229 isogenic cells of varying MGMT and MMR status were seeded in 96 well format at a density of 2000 cells/well in 100 μL of DMEM media and allowed to adhere overnight. On day 2, a drug master plate was made with 100×the desired maximal concentration of test compound and serially diluted by 2 until 100×the minimal desired concentration, with one DMSO control. Then daughter plates were created with varied concentrations from 3-times the minimal concentration to 3-times the maximal desired concentration. Afterwards, 50 μL of daughter drug plate was added to 100 μL of the seeded cells for a final concentration of 1×in triplicate. Cells were allowed to grow for 6 days. On day 7, the cells were fixed, and stained with Hoechst nuclear dye and imaged to determine growth inhibition.
(§2) For each compound tested, the relationship between MGMT status and MMR status and compound activity, in terms of IC50 values (in μM), was determined. In addition, for each compound, the therapeutic index (TI) was calculated, according to the equation MGMT TI=IC50 (MGMT+/MMR+) divided by IC50 (MGMT−/MMR+). The T1 indicates the efficacy of a compound in treating the targeted MGMT-cancer cells as compared to potential for the same compound to damage, or have adverse effects against, normal cells which are MGMT+cells, The higher the value of the TI, the safer the compound is. […] MMR RI (resistance index)=IC50 (MGMT−/MMR−) divided by IC50 (MGMT−/MMR+). The higher the value of the RI, the less likely that resistance to the compound will develop.
(§3) Short-term Cell Viability Assay. Cells were seeded in 96-well plates at 1000 or 2000 cells/well and allowed to adhere at 23° C. for 60 min and then incubated overnight at 37° C. Cells were treated with indicated concentrations of compounds in triplicate for 4-6 days prior to fixation with 3.7% paraformaldehyde and nuclear staining with 1 μg/mL Hoechst 33342 dye. Cells were imaged on a Cytation 3 imaging reader (BioTek) and quantified using CellProfiler software. For in vitro short-term growth delay experiments, IC50 values were determined from the nonlinear regression equation, [inhibitor] vs normalized response with variable slope.

[2] = tested on: four isogenic LN229 glioblastoma cell lines; experiment: Short-term cell viability assays, statements across the isogenic lines; conditions: regardless of MMR status
Protocol: as §1, §2, §3

[3] = tested on: genomic DNA isolated from LN229 MGMT−/MMR+ cells; experiment: Genomic DNA denaturing gel electrophoresis; conditions: KL-50 200 μM
Protocol: Genomic DNA Denaturing Gel Electrophoresis. Cells were trypsinized, washed with 1×PBS, and stored at −80° C. prior to processing. Genomic DNA was extracted with the DNeasy Blood & Tissue Kit (Qiagen) per kit protocol. A 0.7% agarose gel was prepared in 100 mM NaCl-2 mM EDTA (pH 8) and soaked in 40 mM NaOH-1 mM EDTA running buffer for 2 h. Genomic DNA (400 ng/well) was then loaded in 1×BlueJuice loading buffer (Invitrogen) and subjected to electrophoresis at 2 V/cm for 30 min, followed by 3 V/cm for 2 h. The gel was neutralized in 150 mM NaCl-100 mM Tris (pH 7.4) for 30 min, twice, and then stained with 1×SYBR Gold in 150 mM NaCl-100 mM Tris (pH 7.4) for 90 min. Imaging was performed on a ChemiDoc XRS+ Molecular Imager (Bio-Rad).

[4] = tested on: FANCD2 ubiquitination in LN229 MGMT+/−, MMR+/− cells; experiment: Western blot analysis of FANCD2 ubiquitination
From the text: FIGS. 8A-8K. (FIG. 8A) Change in percent cells with 1 micronuclei from baseline (DMSO control) after treatment as in FIGS. 5A and 5C. Columns, mean; error bars, SD; n>15 technical replicates; **** p<0.0001; ns, not significant. (FIG. 8B) Short-term viability assay curves for KL-50 in PD20 cells, deficient in FANCD2 (FANCD2−/−) or complemented with FANCD2 (+FANCD2). (FIG. 8C) Short-term viability assay curves for KL-50 in PEO4 (BRCA2+) and PEO1 (BRCA2−/−) cells pre-treated with 0.01% DMSO control or 10 μM O^6BG (+O^6BG) for 1 h prior to KL-50 addition. (FIG. 8D) Short-term viability assay curves for KL-50 in DLD1 BRCA2+/− and BRCA2−/−cells pre-treated with 0.01% DMSO control or 10 μM O^6BG (+O^6BG) for 1 h prior to KL-50 addition. For FIGS. 8B-8D, points, mean; error bars, SD; n=3 technical replicates. […] (FIG. 8E) Validation of micronuclei identification using olaparib as positive control. Change in percent cells with 1 micronuclei from baseline (DMSO control) after treatment with olaparib (10 μM) for 48 h in LN229 MGMT+/−, MMR+/−cells. Columns, mean; error bars, SD; n>15 technical replicates; **** p<0.0001. […] The % FANCD2 ubiquitination (% FANCD2 Ub) is quantified as the background-corrected integrated band intensity of the upper band divided by the sum of the background-corrected integrated band intensities of the upper and lower bands. […]

Structure (SMILES) | IC50 ([1]; LN-229, 144 h, Table 1, 6 days growth) [µM] | IC50 ([1]; LN-229, Table III, shRNA None) [µM] | IC50 ([1]; LN-229, Table II) [µM] | MGMT− TI ([1]; shRNA None) | activity in MGMT+ cells, in words [2] | crosslinked genomic DNA (ICL induction) [3] | FANCD2 ubiquitination [4] | TI / RI, in words ([1]; LN229 isogenic lines) | MGMT− TI (therapeutic index) ([1]; Table II, IC50 (MGMT+/MMR+) divided by IC50 (MGMT−/MMR+))
Cn1nnc2c(C(N)=O)ncn2c1=O [TMZ, 4-methyl-5-oxo-2,3,4,6,8-pentazabicyclo[4.3.0]nona-2,7,9-triene-9-carboxamide, reference compound] | 8.3 ± 3.5 | 5.1 ± 0.8 | 8.3 ± 3.5 | 137 | essentially inactive | no evidence of ICL induction | only in MGMT−/MMR+cells |  | 
NC(=O)c1ncn2c(=O)n(CCF)nnc12 [KL-50] |  | 13.2 ± 0.8 | 24.7 ± 4.1 | 22 | limited activity | presence of crosslinked DNA | observed specifically in MGMT-cells | superior TI and RI | 24
